# From patent publication US20240183860A1, “Chimeric ABC Transporters and Screening Methods” (Genentech, Inc., priority 2021, published 2024)
# “Also recorded” adds a separate entry of the source. Bridge positions count the residues as written; N and C are the ends. Square brackets hold non-standard residues; d marks the D form. Peptide text beside a SMILES is read from it. NMeF = CN[C@@H](Cc1ccccc1)C(=O)O
# Experiments:
# E. coli MsbA (EcMsbA) = target: T1, E. coli MsbA (EcMsbA) (Escherichia coli, UniProt P60752); test: MsbA ATPase assay (Transcreener ADP2 FP); type: biochemical
# T1 construct: FLAG (N); made in house; host or cells: E. coli (strain for the WT protein not restated)
# T1 sequence (P60752 whole entry): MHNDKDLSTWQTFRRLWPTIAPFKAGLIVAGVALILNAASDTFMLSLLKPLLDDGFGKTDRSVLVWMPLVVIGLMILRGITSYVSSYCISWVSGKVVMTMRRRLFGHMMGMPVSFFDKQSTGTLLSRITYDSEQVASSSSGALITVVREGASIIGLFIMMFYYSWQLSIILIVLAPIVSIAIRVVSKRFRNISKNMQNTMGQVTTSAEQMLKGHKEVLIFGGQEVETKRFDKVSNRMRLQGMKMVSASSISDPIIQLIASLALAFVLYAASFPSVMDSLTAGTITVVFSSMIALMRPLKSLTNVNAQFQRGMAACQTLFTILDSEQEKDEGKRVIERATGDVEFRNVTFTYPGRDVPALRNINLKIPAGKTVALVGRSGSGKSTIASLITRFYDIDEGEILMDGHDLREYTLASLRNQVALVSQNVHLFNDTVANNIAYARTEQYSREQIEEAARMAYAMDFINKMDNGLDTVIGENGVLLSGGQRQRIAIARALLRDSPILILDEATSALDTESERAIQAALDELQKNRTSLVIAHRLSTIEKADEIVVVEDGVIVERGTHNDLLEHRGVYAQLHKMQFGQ
# Procedure: (§1) The ATPase activity of MsbA was measured using a Transcreener ADP2 FP Assay (BellBrook Labs). […] The final condition for the reaction was MsbA enzyme, 50 μM ATP in 50 mM Tris pH 7.5, 10 mM MgCl2, 1% glycerol, 0.1% bovine gamma globulin, 1 mM dithiothreitol (DTT), 0.007% Brij-35 and 0.5% dimethylsulfoxide (DMSO). The following concentrations were used for each MsbA variant: 5 nM of EcMsbA, EnMsbA, KpMsbA and 80 nM PaMsbA reconstituted in amphipol, 15 nM EcMsbA and EcMsbA-chim5 in LMNG detergent, 22 nM EcMsbA and 27 nM EcMsbA-12G7 complex in aDDM detergent. The enzyme reaction was incubated for 1 hour at room temperature, then quenched by adding the Transcreener Detection Buffer. The IC50 was determined by fitting the inhibition dose-response curve with a nonlinear four-parameter inhibition model (GraphPad Prism).
# [1] = target: T2, EcMsbA-chim5 (MsbA-chimera5) (Escherichia coli, UniProt P60752, D53T/D54Y/D60K/DEL268-292/DEL57-57/F265A/G55I/I169L/INS266IAYAGNRVIHEDMRSGALIAFIAAL/INS66P/K49D/K58D/L171A/L263V/L51V/L52I/M159V/M67L/P68V/S164D/S62H/T59E/V63D/Y163E); test: biochemical; type: biochemical
# T2 construct: FLAG (N); made in house; host or cells: E. coli Rosetta 2 (DE3), pET-52b vector
# T2 sequence (P60752 with tags, fused parts or gaps with the stated changes): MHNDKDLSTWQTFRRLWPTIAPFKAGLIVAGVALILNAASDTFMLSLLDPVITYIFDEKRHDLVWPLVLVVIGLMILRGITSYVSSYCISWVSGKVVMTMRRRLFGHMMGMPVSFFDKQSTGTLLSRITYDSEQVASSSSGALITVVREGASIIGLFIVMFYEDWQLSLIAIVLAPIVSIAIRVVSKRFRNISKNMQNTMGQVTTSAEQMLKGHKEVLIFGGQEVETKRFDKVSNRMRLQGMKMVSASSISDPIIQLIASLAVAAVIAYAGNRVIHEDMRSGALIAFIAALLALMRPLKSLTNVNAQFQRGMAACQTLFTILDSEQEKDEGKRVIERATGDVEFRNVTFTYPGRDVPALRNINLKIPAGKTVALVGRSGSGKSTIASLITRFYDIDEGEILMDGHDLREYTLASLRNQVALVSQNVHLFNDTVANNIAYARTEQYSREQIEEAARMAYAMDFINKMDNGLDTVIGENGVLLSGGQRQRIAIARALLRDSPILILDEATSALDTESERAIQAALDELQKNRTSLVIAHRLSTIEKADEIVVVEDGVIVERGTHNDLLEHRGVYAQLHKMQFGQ
# Procedure: as §1
# [2] = test system: EcMsbA-chim5 (MsbA-chimera5); test: biochemical; type: biochemical, Escherichia coli; conditions: ratio of ATPase IC50s
# Procedure: as §1
# [3] = target: Enterobacter cloacae MsbA (EnMsbA); test: MsbA ATPase assay, amphipol-reconstituted homologue; type: biochemical; conditions: FIGS. 13A, 13C
# Procedure: as §1
# [4] = target: Klebsiella pneumoniae MsbA (KpMsbA); test: as above; type: biochemical; conditions: FIGS. 13A, 13C
# Procedure: as §1
# [5] = target: T3, Pseudomonas aeruginosa MsbA (PaMsbA) (Pseudomonas aeruginosa, UniProt Q9HUG8); test: as above; type: biochemical
# T3 construct: FLAG; made in house; host or cells: not restated ('similarly expressed')
# T3 sequence (Q9HUG8 1-603): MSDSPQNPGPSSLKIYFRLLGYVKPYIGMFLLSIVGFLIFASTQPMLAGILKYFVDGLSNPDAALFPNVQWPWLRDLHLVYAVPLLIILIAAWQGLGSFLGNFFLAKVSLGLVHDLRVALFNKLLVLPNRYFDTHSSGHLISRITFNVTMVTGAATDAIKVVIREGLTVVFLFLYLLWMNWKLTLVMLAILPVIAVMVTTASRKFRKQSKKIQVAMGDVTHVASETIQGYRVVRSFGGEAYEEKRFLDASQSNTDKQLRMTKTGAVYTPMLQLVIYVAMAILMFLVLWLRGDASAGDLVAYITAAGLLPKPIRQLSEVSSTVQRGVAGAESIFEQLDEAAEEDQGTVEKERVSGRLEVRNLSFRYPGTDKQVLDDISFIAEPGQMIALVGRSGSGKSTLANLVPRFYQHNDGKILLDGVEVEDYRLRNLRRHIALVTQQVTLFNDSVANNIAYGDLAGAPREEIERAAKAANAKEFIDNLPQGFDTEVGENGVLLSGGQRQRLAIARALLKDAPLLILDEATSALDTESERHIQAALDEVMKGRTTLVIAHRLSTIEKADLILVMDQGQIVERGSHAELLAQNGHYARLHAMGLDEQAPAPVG
# Procedure: as §1
# [6] = test system: WT E. coli cells with an intact outer membrane (CFT073, UPEC WT); test: Cellular IC50 determination (BacTiter-Glo, 6 hours); type: cell-based, Escherichia coli
# Procedure: The cellular IC50's of various bacterial strains (Table 2) were determined.
# 200 nL aliquots of eight 2-fold dilutions of each compound were dispensed in duplicate into 384-well plates using an Echo Liquid Handler (Labcyte). Strains were grown in cation-adjusted Mueller Hinton Broth with 0.002% Tween overnight for 16 hours, washed with PBS, resuspended at OD600=1 in cation-adjusted Mueller Hinton Broth with 0.002% Tween and 10% glycerol, and frozen in […] aliquots. For each experiment, aliquots were thawed on ice and diluted 1:1000 into cation-adjusted Mueller Hinton Broth with 0.002% Tween. 10 μL cells/well were added to 384-well plates containing compound. Plates were incubated for 6 hours at 37° C., then 10 μL BacTiter-Glo reagent (Promega) was added to each well and luminescence was measured. IC50's were calculated using Genedata Screener software.
# [7] = test system: imp E. coli (lptD(imp4213)), E. coli MsbA; test: Broth MIC assay; type: cell-based, Escherichia coli; conditions: cells containing the lptD(imp4213) allele
# Procedure: Broth MICs were determined in cation-adjusted Mueller-Hinton broth with 0.002% Tween-80, as previously described (Ho et al., 2018).
# [8] = test system: E. coli CFT073 lptD(imp4213) cells; test: Electron microscopy of inhibitor-exposed cells (membrane phenotype, LPS transport); type: cell-based, Escherichia coli
# Excerpt: In some embodiments, one or more functional assays may be performed to test the effect of molecules identified in a screen on the function of the parental ABC transporter. For example, in some cases, a molecule that binds to the periplasmic, extracellular, and/or luminal face of an ABC transporter acts as an inhibitor of the transporter. For example, if inhibition of an ABC transporter activity is expected to result in loss of cell viability or reduction of cell growth, for example, then a cell viability or growth assay can be conducted to determine if presence of the identified molecule affects these parameters. In some cases, other assays may be conducted to determine the impact of a molecule on the function of the transporter. In some cases, the transport of the transporter's substrate in the presence and absence of the molecule can be tested. […] Lack of LPS transport causes a stacking of inner and outer membranes at the surface of a bacterial cell that is clearly visible by EM. Appropriate functional assays for the ABC transporter in question are known or may be readily developed based on knowledge in the art.
# Electron microscopy of E. coli CFT073 lptD(imp4213) or CFT073 lptD(imp4213) msbA-cond-ko cells rescued with pLMG18 plasmids expressing the indicated E. coli MsbA mutants was performed as described previously (Ho et al., 2018). […]
compound,measurement,setting,value
CC(C)C[C@@H]1NC(=O)[C@H](Cc2c[nH]c3ccccc23)NC(=O)[C@H](Cc2c[nH]c3ccccc23)NC(=O)[C@H](Cc2ccccc2)NC(=O)CSC[C@@H](C(=O)NCC(N)=O)NC(=O)[C@H](C(C)C)NC(=O)[C@H](Cc2ccccc2)N(C)C(=O)[C@H](Cc2c[nH]c3ccccc23)NC(=O)[C@H](Cc2c[nH]c3ccccc23)NC(=O)[C@H](CO)NC(=O)[C@H](C(C)C)NC(=O)[C@H](CC(=O)O)NC(=O)[C@H](CC(=O)O)NC(=O)[C@H](Cc2c[nH]c3ccccc23)NC1=O [Compound G1118] ({CH2CO}-FWWLWDDVSWW[NMeF]VCG-NH2; thioether N-14),IC50,"E. coli MsbA (EcMsbA); IC50 for binding to MsbA in an imp E. coli strain, worded as binding to MsbA in imp E. coli strain (outer membrane permeable), FIG. 3F",5 nM
same,IC50,"E. coli MsbA (EcMsbA); half-maximum inhibitory concentration (IC50), ATPase activity of EcMsbA, purified WT EcMsbA, FIG. 3C",~110 nM
same,IC50,[1],> 5000 nM
same,lower potency on purified MsbA-chim5 versus EcMsbA,[2],> 30 fold
same,IC50,[3],~240 nM
same,IC50,[4],~120 nM
same,IC50,[5],3100 nM
same,activity on WT E. coli with an intact outer membrane,[6],no activity was observed
same,minimum inhibitory concentration (MIC),[7],~210 µg/mL
same,LPS transport activity of E. coli MsbA,[8],inhibit LPS transport activity
same,inner membrane elaboration / membrane stacking phenotype,"[8]; electron micrographs, imp cells treated with inhibitor",gave rise to the distinctive inner membrane elaboration phenotype; also recorded: mirrored the distinctive inner membrane elaboration phenotype
